# Measured values reported in patent US20210106582A1, “COMPOUNDS AND PHARMACEUTICAL COMPOSITIONS THEREOF FOR USE IN THE TREATMENT OF FIBROTIC DISEASES” (Galapagos NV, priority 2017, published 2021).
# Several values for one entry are separate records, joined by “and”; a condition that tells them apart may be missing. Identical values can stand only once.
# Experiments:
# Assay type in all cases: in vivo
# [1] = test system: C57BL/6N male mice, bleomycin induced pulmonary fibrosis; assay: Therapeutic bleomycin induced pulmonary fibrosis 21-day mice model; details: individual animals, BLM, CpdA 30 mg/kg BID PO D7-D21
# Procedure: The aim of the study is to test the efficacy of a test compound at three different doses in a 21-day model of bleomycin induced pulmonary fibrosis in mice.
# 11 week-old C57BL/6N male mice from Charles River (Italy) are maintained on 12 h light/dark cycle at 22° C. with ad libidum access to tap water and food.
# On day 0, all mice in groups 2-4 receive a 1.5 U/kg oropharyngeal administration of bleomycin (BLM) to induce pulmonary fibrosis Animals in group 1 are not administered bleomycin, but instead receive a single dose of saline via the oropharyngeal route, and are considered sham control mice.
# Animals are examined clinically twice daily. List of clinical signs and parameters are indicated in humane endpoints table. Animals are weighed daily starting from DO.
# On day 21, lung functionality is determined. After deep anesthesia induced by an intraperitoneal injection (10 mL/kg) of a solution of xylazine (5 mg/kg) and ketamine (75 mg/kg), the trachea is exposed through midline incision and a cannula is inserted. Mice are ventilated with a tidal volume of 10 mL/kg at a frequency of 150 breaths/minute. FlexiVent (SCIREQ®) perturbations are performed three times. Deep Inflation and Pressure-Volume loops (PV loops) with stepwise increasing pressure are performed to measure the Inspiratory Capacity and stepwise pressure-driven perturbation (PVs-P). PV loops between 0 and 30 cm H2O are generated to obtain Total Lung Capacity (A). A snapshot perturbation maneuver is imposed, which is a threefold sinusoidal wave of in- and expiration controlled by the ventilator, resulting in resistance (Rrs), compliance (Crs), and elastance (Ers) of the whole respiratory system (airways, lung and chest wall). A value for each group is calculated with average FlexiVent-validated measurements recorded in each individual subject.
# Then, two hours after the last dose of test substance and nintedanib, mice are sacrificed by anesthetic overdose. The lungs are excised and weighed individually. The lungs are then placed into marked bottles containing 10% buffered formalin for further histopathological evaluation.
# Body weight data and lung weight data are processed using MS Excel. Statistical analysis and graphical presentation are performed using GraphPad Prism software (version 5.04).
# For histopathological evaluation, whole lungs are embedded in paraffin and stained with Mallory's trichrome.
# Pulmonary histological changes are assessed using Matsuse's modification of Ashcroft score (Ashcroft et al., 1988; Matsuse et al., 1999). Statistical analysis and graphical presentation is performed using GraphPad Prism software (version 5.04). Mann-Whitney test is employed.
# Differences between groups are considered statistically significant when p<0.05.
# [2] = test system: male C57BL/6 mice fed a Methionine and Choline-deficient (MCD) diet; assay: MCD model (methionine and choline deficient diet, NASH); details: individual animals, 30 mg/kg q.d. p.o., MCD diet 8 wk
# Procedure: The methionine and choline deficient (MCD) diet model is used to produce a severe phenotype of NASH in […] (Santhekadur et al., 2017), and is used to evaluate the compounds of the invention.
# At induction, 8 weeks-old male C57BL/6 mice (Janvier Labs, France) maintained at 22° C.±2° C. and humidity at 55%±10%, with a 12-hrs dark/light cycle are fed a standard diet (chow (A04C-10, Safe, France) or a Methionine and Choline-deficient (MCD) diet (EFTD.90262, Ssniff, Soest, Germany) for 8 weeks. All animals have access to filtered tap drinking water.
# Four weeks after the induction, the animals are either assigned to a control-group or a test-group.
# Test group animals are dosed with the a test compound, i.e. Compound A (CpdA) or Compound B (CpdB), at 30 mg/kg, q.d., p.o. formulated in methylcellulose 0.5%, 1 equivalent HCl. The control groups receives a similar volume of vehicle (10 mL/kg), i.e. the standard diet for control group 1 (C1) and the MCD diet for control group 2 (C2). Mice are randomly assigned to a treatment group according to their body weight in order to ensure a homogenous reparation.
# After sacrifice (week 8), the activity of the test compound on the development of NASH is assessed by plasma ALT and AST levels and in liver by histopathological examination of fibrosis and steatosis (Sirius red, Oil Red O), collagen (OH-Pro) and triglycerides content and expression of fibrotic and inflammatory genes.
# In addition, the NAS score is determined to further evaluate the compounds with respect to their effect on diet induced NASH. The nonalcoholic fatty liver disease activity scoring (NAS) has been proposed and accepted as a tool to measure changes in NAFLD during therapeutic trials (Brunt et al., 2011; Kleiner et al., 2005).
# The NAS score (0-8) is defined as the sum of the steatosis score (0-3), lobular inflammation score (0-3), ballooning score (0-2). A NAS score of ≥5 is indicative of a NASH diagnostic.
# [3] = test system: male C57BL/6 mice fed CDAHF diet; assay: CDAHFD model (choline-deficient, L-amino acid-defined, high-fat diet); details: individual animals, CDAHFD 10W, 30 mg/kg q.d. p.o.
compound,measurement,setting,value
"O=c1nc(OC[C@@H]2COCCO2)cc2n1CCc1cc(C#CC3CC3)ccc1-2 [Compound A, 9-Cyclopropylethynyl-2-((S)-1-[1,4]dioxan-2-ylmethoxy)-6,7-dihydro-pyrimido[6,1-a]isoquinolin-4-one]",Compliance of the Respiratory System,[1]; Figure 14 panel B,0.034 mL/cmH2O and 0.030 mL/cmH2O and 0.035 mL/cmH2O and 0.037 mL/cmH2O and 0.036 mL/cmH2O and 0.033 mL/cmH2O and 0.041 mL/cmH2O (2×) and 0.031 mL/cmH2O and 0.038 mL/cmH2O and 0.046 mL/cmH2O and 0.042 mL/cmH2O
same,Elastance of the Respiratory System,[1]; Figure 14 panel C,29.43 cmH2O/mL and 33.18 cmH2O/mL and 28.94 cmH2O/mL and 26.99 cmH2O/mL and 27.50 cmH2O/mL and 30.18 cmH2O/mL and 24.40 cmH2O/mL and 31.90 cmH2O/mL and 26.35 cmH2O/mL and 21.92 cmH2O/mL and 23.92 cmH2O/mL and 24.49 cmH2O/mL
same,Ashcroft Score,"[1]; Matsuse's modification, Figure 13",2.4 and 3.0 and 2.5 and 3.3 and 3.4 (2×) and 2.9 (2×) and 2.7 (2×) and 3.6 and 2.3 and 2.0 and 2.1
same,Inspiratory Capacity,"[1]; day 21 FlexiVent, Figure 14 panel A",0.58 mL (2×) and 0.66 mL and 0.65 mL and 0.59 mL and 0.75 mL and 0.69 mL (2×) and 0.84 mL and 0.73 mL and 0.71 mL
same,TIMP1 NRQ gene expression,"[2]; NRQ scaled versus disease, Fig 8 Panel B",1.0 and 1.1 and 0.4 (3×) and 0.8 and 0.9 and 0.1 and 0.5 and 2.3
same,Col1a NRQ gene expression,"[2]; dosing from week 4, Normalised Relative Quantity scaled versus disease, FIG. 8 Panel A",0.3 and 0.8 (2×) and 1.0 and 0.5 and 0.1 and 0.4 and 2.1 and 0.6 and 2.4
same,TNfα NRQ gene expression,"[2]; liver, NRQ scaled versus disease, Fig 9 Panel A",0.8 (3×) and 1.4 and 1.0 and 0.7 and 0.5 and 0.1 and 1.5 and 0.4
same,CC12 NRQ gene expression,"[2]; liver, NRQ scaled versus disease, Fig 9 Panel B",0.5 (4×) and 1.2 and 0.6 (2×) and 0.7 and 0.2 and 1.0
same,NAS scoring data,"[2]; total NAS score (0-8), Fig 10",7.0 (4×) and 6.0 (4×) and 5.0 and 8.0
same,Col1a1 expression profiles (NRQ-scaled versus Disease-Vehicle),[3]; Fig 12 panel A,1.76 and 0.36 and 0.49 and 0.35 and 0.43 and 0.38 and 0.10 and 0.18 and 0.12 and 0.26
same,TNFα expression profiles (NRQ-scaled versus Disease-Vehicle),[3]; Figure 12 panel B,0.53 (2×) and 0.89 and 0.77 and 0.46 and 0.67 and 0.80 and 0.64 and 0.97 and 0.59
same,Fibrosis (Sirius red area %),"[3]; liver, Figure 11",0.53% (2×) and 0.89% and 0.77% and 0.46% and 0.67% and 0.80% and 0.64% and 0.97% and 0.59%
